Measurements as given in a melting point compilation (Tetko et al.; mined from patent text by program, amines drawn as free bases though some values may be those of a salt).

| Structure (SMILES) | melting point |
| --- | --- |
| COc1ccc(C(C#Cc2ccccc2)CN(C)C(=O)C(=O)O)cc1OC1CCCC1 (racemic) | 157 to 159 °C |
| CC(C)S(=O)(=O)c1cc(OCCc2ccccn2)c2[nH]nc(Nc3ncc(CN4CCOCC4)s3)c2c1 | > 190 °C |
| NC(=O)CCCCCc1ccc(Cl)cc1 | 87 to 89 °C |
| CCC(C)Cc1ccc(OC(=O)c2ccc(O)cc2Cl)cc1 (single isomer, unassigned; (+)) | 142 °C |
| COc1ccc(S(=O)(=O)Nc2cccc(C)c2N)cc1 | 177 to 178 °C |
| CN(C)C(=O)N1CCc2ccc(S(N)(=O)=O)cc2CC1 | 192 to 193 °C |
| CCn1cc(C(=O)O)c(=O)c2cc3cc(F)c(N4CCNC(c5cccc(F)c5)C4)cc3nc21 (racemic) | 284 °C |
| Cc1c(Cl)c(C=O)c(C)c2c1CC(C)(C)C2 | 127 °C |
| COC(=O)c1cc2nccnc2cc1N | 180 to 182 °C |
| CCC(C)c1ccc(N(Cc2ccccc2)C(=N)N)cc1 (stereo not drawn) | 65 to 67 °C |
| O=C1NCCN1CC#CCn1ccnc1 | 97 to 101 °C |
| CCC(CC)Nc1nc(C)nc(Nc2c(C)cc(C)nc2C)c1[N+](=O)[O-] | 151 to 152 °C |
| Cc1cc(Cl)ccc1OC(Cn1cncn1)C(=O)C(C)(C)C (stereo not drawn) | 63 to 65 °C |
| Cn1c(NC2CCNC(Cc3ccccc3)C2)nc2ccccc21 (stereo not drawn) | 86.3 °C |
| CCOC(=O)C(=CNNc1c(Cl)cc(Cl)cc1Cl)C(=O)OCC | 92 °C |
| O=Cc1ccc(-c2ccc(-c3ccc(C=O)o3)cc2)cc1 | 173 to 174 °C |
| CCCCCCCCCCCCCCCCCC(=O)NCCCSc1ccncc1 | 88 to 89 °C |
| CCC(CC)(COc1cc(C)c2nc(C)nn2n1)CS(N)(=O)=O | 159 to 160 °C |
| CC(=O)OCC(=O)C1C(C)CC2C3CC(Cl)C4=CC(=O)CCC4(C)C3C(O)CC21C (stereo not drawn) | 209 °C |
| CC12CCC3c4ccc(O)cc4CCC3C1CC=C2c1cccnc1 (stereo not drawn) | 256 to 258 °C |
| COc1ccc2nc(O)c(O)nc2c1 | > 300 °C |
| O=c1oc2c(c(O)c1Sc1ccc(Cl)cc1)c(=O)n(Cc1ccccc1)c1ccccc21 | 273 to 275 °C |
| O=C(Nc1c(Cl)cncc1Cl)c1ccc(OC(F)F)c2oc3ccccc3c12 | 270 °C |
| CCOC(=O)/C=C/c1cc(-c2ccc(C)cc2)n(-c2ccc(S(N)(=O)=O)cc2)n1 | 167 to 171 °C |
| NC(=O)Cc1ccc2c(c1)C(=O)Cc1ccccc1S2 | 171 to 172 °C |

| Structure (SMILES) | melting point |
| --- | --- |
| O=C(COc1ccc2ccccc2c1)NC(Cc1ccccc1)C(=O)CSCc1ccco1 (stereo not drawn) | 115 to 118 °C |
| Fc1nc(NCc2ccccn2)c2nc[nH]c2n1 | 217 to 220 °C |
| O=C(O)Cc1cnn(-c2ccc(Cl)cc2)c1-c1ccc(Cl)cc1 | 195 to 196 °C |
| CC(C)(C)OC(=O)N[C@H]1CNC1=O | 173 to 175 °C |
| COc1cc(-c2cnc3[nH]cc(C(=O)C(=O)N(C)C)c3n2)cc(OC)c1OC | 227 to 228 °C |
| O=C(Cl)C=Cc1c(Cl)cccc1Cl | 64.5 to 66 °C |
| CC(C)(C)OC(=O)[C@H]1C[C@H](C(=O)O)[C@@H](c2ccccc2)N1C(=O)CNC(=O)Nc1ccc(Cl)cc1 (racemic) | 248 °C |
| COc1cc(OC)c(OC)cc1C=C1CCc2c1oc1ccc(C(=O)O)cc1c2=O | 311 to 313 °C |
| Cc1ccc(Oc2c(Cl)c(Oc3ccc(C)cc3)c(Oc3ccc(C)cc3)c(C#N)c2C#N)cc1 | 142 to 145 °C |
| O=C(CNc1ccccc1)Nc1cc(F)c(F)cc1C(=O)O | 124 to 126 °C |
| CCOC(=O)C1=C(C)NC(=S)N(C(=O)OC(C)C)C1c1cccc(Cl)c1Cl (stereo not drawn) | 157 to 159 °C |
| O=C1OCCC1Oc1ccc(-c2ccccc2)cc1[N+](=O)[O-] (stereo not drawn) | 117 to 119 °C |
| CCCCc1nc2sc(Cl)cc2c(=O)n1CCC | 67 to 69 °C |
| O=C1CC[C@H](c2ccc(NC(=O)OCc3ccccc3)cc2)C1 | 96.3 to 98.5 °C |
| CC1C(=O)N(c2ccccc2)N=C1N (stereo not drawn) | 147 °C |
| Cc1c(C)c2ccc(OCCCN3CCN(Cc4ccc(Cl)cc4)CC3)cc2[nH]c1=O | 143 to 144 °C |
| Cc1nc(C)c(Cl)c(NCc2nccc(SCCCSCCO)c2C)n1 | 134 to 137 °C |
| COc1nc(C(F)(F)C(F)(F)F)c(F)c(=O)n1-c1cc(C(=O)OC(C)C)c(Cl)cc1F | 75 to 77 °C |
| CS(=O)(=O)N(Cl)C(=O)c1cc(Oc2ccc(Cl)cc2Cl)ccc1[N+](=O)[O-] | 161 to 163 °C |
| Cn1cc([C@H]2CC[C@@H](N3CCN(c4cc(C=O)cc5cccnc45)CC3)CC2)c2cc(C#N)ccc21 | 172 to 174 °C |
| N=C(NS(=O)(=O)C=Cc1ccc([N+](=O)[O-])cc1)c1ccc([N+](=O)[O-])cc1 | 173 to 177 °C |
| CN(C)Cc1c(-c2ccccc2)oc2c(CO)cccc2c1=O | 150 °C |
| Clc1cnn2c(-c3cccnc3)ccnc12 | 225 to 226 °C |
| O=C(Nc1ccccc1)c1cccc(NC(=S)Nc2cc(Cl)cc(Cl)c2)c1 | 174 to 177 °C |
| N#CCOc1c(-c2ccccc2)c(=O)[nH]c2cc(Cl)ccc12 | 209 to 211 °C |

| Structure (SMILES) | melting point |
| --- | --- |
| COc1cc(C(=O)Nc2nnn[nH]2)nc(-c2ccc(N(C)C)cc2)c1 | 261 to 263 °C |
| O=C(O)CCC(=O)c1ccc(NC(=O)CCN2CCC(c3ccccc3)CC2)cc1 | 237 to 238 °C |
| CC#Cc1cn(C2OC(CO)C(O)C2O)c(=O)[nH]c1=O (stereo not drawn) | 225 to 227 °C |
| CC(=NOCc1ccccc1)C(C)Oc1ccccc1NC(=O)c1cccnc1Cl (stereo not drawn) | 53 to 55 °C |
| NC(=O)c1cc(C(=O)c2ccccc2)ccc1[N+](=O)[O-] | 244 °C |
| CCC(CC)NC(=O)C[C@@H](C(=O)NC[C@@H](O)[C@H](Cc1ccccc1)NC(=O)[C@@H](NC(=O)c1ccc2ccccc2n1)[C@@H](C)O)C(C)(C)C | 110 to 125 °C |
| CCOC(=O)NNc1nc2ccccc2n2cnc(C(=O)OCC)c12 | 126 to 128 °C |
| CCOc1cc2c(Cl)ncnc2cc1OC(C)C | 104 to 106 °C |
| COc1cc(Br)ccc1C12CC3CC(CC(C3)C1)C2 | 159 to 160 °C |
| O=C(O)CCCCCCC1(CCCCCCC(=O)O)C(=O)NC(=O)N1CCC(O)C1CCCCC1 (stereo not drawn) | 116 to 118 °C |
| CCOC(=O)c1cc2c(O)nncc2nc1NC | 290 to 292 °C |
| CNC(=O)C(NC(=O)OCc1ccccc1)C(N)=O (stereo not drawn) | 178 to 180 °C |
| COC(=O)c1ccc(N=Cc2cccc(Cl)c2)cn1 | 139 to 142 °C |
| CN1CCCC(COc2ccc(/C=c3\[nH]c(=O)/c(=C/c4ccccc4)[nH]c3=O)nc2)C1 (stereo not drawn) | 326 to 328 °C |
| CC(CCNC(=O)c1cc2cc(Cl)ccc2[nH]1)n1ccnc1 (stereo not drawn) | 210 °C |
| O=C(O)Cc1ccnc2c(NC(=O)c3c(Cl)cccc3Cl)cccc12 | 228 to 230 °C |
| CCCCCCCCCCNC(=O)c1cccc(N)c1 | 56 to 58 °C |
| COc1ccc(CNc2n[nH]cc2C(=O)O)cc1OC1CCCC1 | 134 to 136 °C |
| CC(C)(C)c1cc(C=Cc2ccccc2NC(=O)N(Cc2ccccc2)Cc2ccccc2)cc(C(C)(C)C)c1O | 175 to 178 °C |
| c1csc(-c2cnc(COc3ccc(CCCn4ccnc4)cc3)s2)c1 | 82 to 84 °C |
| COc1cc(NC(=O)NS(=O)(=O)c2ccccc2C)nc(OC)n1 | 174 to 175 °C |
| NC(=O)c1cc(F)cc(-c2cccc3cc(Cc4cc(F)cc(Cl)c4)sc23)c1 | 186 to 187 °C |
| CNc1nc(-c2cccc(NC(=O)c3ccc(Cl)nc3)c2)c2cc(OC)c(OC)cc2n1 | 157 to 159 °C |
| Cc1cccc2c1N(CC(=O)C1CC1)C(=O)C(NC(=O)Nc1cccc(-c3nnn[nH]3)c1)N=C2C1CCCCC1 (stereo not drawn) | 227 to 233 °C |
| Cc1c(Br)csc1C(=O)O | 188 to 189 °C |

| Structure (SMILES) | melting point |
| --- | --- |
| CCCCOC(=O)n1ccc(NC(=O)Nc2cccc3c2C2CCCCN2C3=O)n1 (stereo not drawn) | 136 °C |
| NC(Cc1ccccc1)C(=O)CCC(=O)O (stereo not drawn) | 138 to 139 °C |
| Cc1c(-c2ccc(C(C)(C)C)cc2)[nH]c2nccnc12 | 213 to 214 °C |
| COc1c(C)c(C)c(OC)c([N+](=O)[O-])c1[N+](=O)[O-] | 147 to 150 °C |
| C[C@@H](n1cnn(-c2ccc(OCC(F)(F)C(F)(F)F)cc2)c1=O)[C@@]1(c2ccc(F)cc2F)CO1 | 128 to 129 °C |
| Cc1ccc(-c2c3c(cc4ccc(O)cc24)-c2ccc(O)cc2CO3)cc1C | 218 to 221 °C |
| O=C(Nc1cccc2c1C(=O)c1c-2n[nH]c1-c1ccc(C(=O)NC2CN3CCC2CC3)s1)NN1CCOCC1 (stereo not drawn) | 245 to 246 °C |
| COc1c(Cl)cc(CNc2ccccc2[N+](=O)[O-])cc1Cl | 128 °C |
| COC(CN(C)C(=O)Nc1nnc(C(C)Oc2ccc(Cl)cc2)s1)OC (stereo not drawn) | 116 to 118 °C |
| Cn1ncc(CN2C(=O)c3ccccc3C2=O)c1-c1ccc(Cl)cc1C(=O)c1ccccc1F | 153 to 155 °C |
| CC(=O)N(O)Cc1cccc(C(O)C#Cc2ccsc2)c1 (stereo not drawn) | 133 °C |
| CCCCN(CCCC)c1ccc(C=CC2=C(OC)C(=CC=CC3=C(C#N)C(=C(C#N)C#N)OC3(C)C)CC(C)(C)C2)c(OC)c1 | 244 to 246 °C |
| Cc1cc([N+](=O)[O-])nc(C)c1C(N)=O | 179 to 180 °C |
| CNc1nc(Cc2ccc(OC)c(OC)c2)nc2sc(C#N)c(C)c12 | 161 to 163 °C |
| C=C(CCCC(=O)N1CCC[C@@H](C(=O)OC(C)(C)C)N1)C(=O)O | 86 to 88 °C |
| O=C(O)c1cn(-c2ccnc3ccccc23)cc1C1CC1 | 195 °C |
| O=c1[nH]c2cc(Cl)ccc2n1C1CCN(C[C@H]2CO[C@@H](c3ccc(F)cc3)C2)CC1 (relative stereo) | 208 °C |
| CN(C)C1(c2ccccc2)CCC(CNC(=O)NCCc2c[nH]c3ccc(F)cc23)CC1 (stereo not drawn) | 70 to 73 °C |
| CSc1ccc2c3c(cccc13)C(=O)N2C(C)C | 70 to 71 °C |
| COc1ccc2c(Cc3c(Cl)cncc3Cl)nnc(-c3ccccc3)c2c1 | 206 to 208 °C |
| O=C(CBr)c1ccc(OC2CCCCO2)cc1 (racemic) | 102 to 104 °C |
| CS(=O)(=O)c1ccc2ccn(C3CCN(CCc4ccc(F)cc4)CC3)c2c1 | 133 to 135 °C |
| O=C(Nc1ccncc1)c1ccc(-n2nc(C(F)(F)F)cc2C(F)(F)F)cc1 | 234 to 235 °C |
